Test results from the kinase profiling compilation of Christmann-Franck et al. (2016).

Experiments:
Assay in all cases: radiometric filter-binding kinase assay
NEK6 (human) = NEK6 (human) (UniProt Q9HC98)
IGF1R (human) = IGF1R (human) (UniProt P08069)
PKN2 (human) = PKN2 (human) (UniProt Q16513)
PAK4 (human) = PAK4 (human) (UniProt O96013)
RPS6KA5 KD1 KD2 (human) = RPS6KA5 KD1 KD2 (human) (UniProt O75582)
PAK7 (human) = PAK7 (human) (UniProt Q9P286)
MST4 (human) = MST4 (human) (UniProt Q9P289)
DYRK1A (human) = DYRK1A (human) (UniProt Q13627)
NEK2 (human) = NEK2 (human) (UniProt P51955)
PLK1 (human) = PLK1 (human) (UniProt P53350)
SRPK1 (human) = SRPK1 (human) (UniProt Q96SB4)
MAPK12 (human) = MAPK12 (human) (UniProt P53778)
[1] = system: AKT2 (human), P31751 [S474D]
[2] = system: SGK1 (human), O00141 [S422D]
MAPK15 (human) = MAPK15 (human) (UniProt Q8TD08)
CAMKK2 (human) = CAMKK2 (human) (UniProt Q96RR4)
MAPK14 (human) = MAPK14 (human) (UniProt Q16539)
IKBKE (human) = IKBKE (human) (UniProt Q14164)
PAK6 (human) = PAK6 (human) (UniProt Q9NQU5)
CHEK1 (human) = CHEK1 (human) (UniProt O14757)
RPS6KA3 KD1 KD2 (human) = RPS6KA3 KD1 KD2 (human) (UniProt P51812)
CSNK1D (human) = CSNK1D (human) (UniProt P48730)
MAPKAPK2 (human) = MAPKAPK2 (human) (UniProt P49137)
MAPK3 (human) = MAPK3 (human) (UniProt P27361)
PIM3 (human) = PIM3 (human) (UniProt Q86V86)
PIM2 (human) = PIM2 (human) (UniProt Q9P1W9)
Chain of PIM2 (human) (Q9P1W9 whole entry, looked up): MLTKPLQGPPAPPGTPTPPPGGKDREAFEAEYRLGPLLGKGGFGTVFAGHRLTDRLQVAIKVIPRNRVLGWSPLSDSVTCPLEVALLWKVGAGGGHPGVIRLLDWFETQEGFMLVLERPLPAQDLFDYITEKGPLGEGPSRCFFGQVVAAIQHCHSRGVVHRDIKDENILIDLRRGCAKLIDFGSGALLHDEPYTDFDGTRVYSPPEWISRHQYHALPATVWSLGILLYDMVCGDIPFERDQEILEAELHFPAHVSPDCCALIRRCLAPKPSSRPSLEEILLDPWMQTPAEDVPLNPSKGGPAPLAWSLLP

Chain of IKBKE (human) (Q14164 whole entry, looked up): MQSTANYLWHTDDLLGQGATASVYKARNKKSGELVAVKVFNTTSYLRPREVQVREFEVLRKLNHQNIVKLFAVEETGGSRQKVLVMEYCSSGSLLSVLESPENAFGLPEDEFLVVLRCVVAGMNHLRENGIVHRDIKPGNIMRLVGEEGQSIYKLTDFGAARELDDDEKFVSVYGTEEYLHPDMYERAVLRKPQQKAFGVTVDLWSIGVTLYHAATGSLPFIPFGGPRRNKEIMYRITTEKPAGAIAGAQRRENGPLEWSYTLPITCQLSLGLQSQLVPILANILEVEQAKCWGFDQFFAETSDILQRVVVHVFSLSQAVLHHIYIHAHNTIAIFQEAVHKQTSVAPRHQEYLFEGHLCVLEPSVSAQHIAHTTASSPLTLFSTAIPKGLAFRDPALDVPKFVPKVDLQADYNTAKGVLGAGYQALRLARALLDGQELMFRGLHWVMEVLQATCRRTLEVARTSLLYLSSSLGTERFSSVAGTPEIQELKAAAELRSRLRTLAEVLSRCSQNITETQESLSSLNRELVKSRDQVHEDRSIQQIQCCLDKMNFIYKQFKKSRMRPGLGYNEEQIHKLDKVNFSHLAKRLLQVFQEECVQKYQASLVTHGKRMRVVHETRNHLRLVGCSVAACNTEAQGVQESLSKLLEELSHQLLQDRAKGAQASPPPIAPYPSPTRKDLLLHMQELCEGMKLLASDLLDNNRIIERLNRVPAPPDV
Chain of NEK6 (human) (Q9HC98 whole entry, looked up): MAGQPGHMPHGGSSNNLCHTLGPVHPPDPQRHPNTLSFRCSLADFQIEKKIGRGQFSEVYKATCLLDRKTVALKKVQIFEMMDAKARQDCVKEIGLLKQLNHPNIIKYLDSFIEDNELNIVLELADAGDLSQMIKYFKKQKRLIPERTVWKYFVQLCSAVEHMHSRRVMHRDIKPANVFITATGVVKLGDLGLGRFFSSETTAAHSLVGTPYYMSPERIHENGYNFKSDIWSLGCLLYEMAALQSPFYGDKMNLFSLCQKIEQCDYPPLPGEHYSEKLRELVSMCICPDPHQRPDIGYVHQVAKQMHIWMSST
Chain of MST4 (human) (Q9P289 whole entry, looked up): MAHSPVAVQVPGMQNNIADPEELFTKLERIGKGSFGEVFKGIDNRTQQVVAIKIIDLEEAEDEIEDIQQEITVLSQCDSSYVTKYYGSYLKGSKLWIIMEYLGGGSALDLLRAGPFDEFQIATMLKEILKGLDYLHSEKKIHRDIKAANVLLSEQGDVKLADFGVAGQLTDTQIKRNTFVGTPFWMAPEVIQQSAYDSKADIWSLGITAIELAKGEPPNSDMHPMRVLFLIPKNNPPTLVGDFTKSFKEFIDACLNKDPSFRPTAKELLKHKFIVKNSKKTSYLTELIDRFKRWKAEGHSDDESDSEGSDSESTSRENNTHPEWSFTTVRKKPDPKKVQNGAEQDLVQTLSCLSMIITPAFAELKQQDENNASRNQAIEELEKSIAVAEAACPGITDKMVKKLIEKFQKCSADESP
Chain of IGF1R (human) (P08069 whole entry, looked up): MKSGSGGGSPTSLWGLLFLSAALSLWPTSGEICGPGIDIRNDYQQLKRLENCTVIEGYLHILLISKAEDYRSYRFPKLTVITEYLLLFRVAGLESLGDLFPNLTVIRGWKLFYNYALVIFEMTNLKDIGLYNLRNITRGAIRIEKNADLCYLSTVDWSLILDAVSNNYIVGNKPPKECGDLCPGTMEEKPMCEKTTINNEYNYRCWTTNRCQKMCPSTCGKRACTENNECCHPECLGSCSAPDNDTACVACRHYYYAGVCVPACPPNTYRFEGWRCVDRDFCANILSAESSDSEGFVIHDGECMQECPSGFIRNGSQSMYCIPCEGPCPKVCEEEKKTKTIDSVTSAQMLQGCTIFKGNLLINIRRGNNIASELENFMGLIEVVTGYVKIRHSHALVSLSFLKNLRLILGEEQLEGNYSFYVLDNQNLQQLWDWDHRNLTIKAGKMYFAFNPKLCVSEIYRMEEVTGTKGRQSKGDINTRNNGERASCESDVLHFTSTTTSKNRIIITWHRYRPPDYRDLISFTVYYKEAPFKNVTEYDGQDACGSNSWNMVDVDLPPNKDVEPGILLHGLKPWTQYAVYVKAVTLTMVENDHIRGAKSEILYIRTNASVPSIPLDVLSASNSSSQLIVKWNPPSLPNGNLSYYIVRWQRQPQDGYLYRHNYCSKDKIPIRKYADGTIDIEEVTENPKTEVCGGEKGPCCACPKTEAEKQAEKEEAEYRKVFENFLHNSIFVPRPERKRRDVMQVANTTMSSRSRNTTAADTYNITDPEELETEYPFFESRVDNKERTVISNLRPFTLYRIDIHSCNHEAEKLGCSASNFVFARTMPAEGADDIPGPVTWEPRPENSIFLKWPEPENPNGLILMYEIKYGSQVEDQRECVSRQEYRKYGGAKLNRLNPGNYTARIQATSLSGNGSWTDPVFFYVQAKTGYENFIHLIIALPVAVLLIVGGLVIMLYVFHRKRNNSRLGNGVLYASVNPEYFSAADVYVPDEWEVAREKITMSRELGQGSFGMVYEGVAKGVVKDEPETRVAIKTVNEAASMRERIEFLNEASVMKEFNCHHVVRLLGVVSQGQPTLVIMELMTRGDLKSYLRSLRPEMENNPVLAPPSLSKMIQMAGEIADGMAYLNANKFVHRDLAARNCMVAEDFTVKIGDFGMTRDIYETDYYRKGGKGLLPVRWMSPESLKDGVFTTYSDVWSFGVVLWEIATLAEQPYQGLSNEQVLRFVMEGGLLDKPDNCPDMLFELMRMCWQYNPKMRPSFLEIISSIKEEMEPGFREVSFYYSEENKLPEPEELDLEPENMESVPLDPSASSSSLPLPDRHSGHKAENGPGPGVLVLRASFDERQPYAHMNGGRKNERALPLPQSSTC
Chain of MAPK14 (human) (Q16539 whole entry, looked up): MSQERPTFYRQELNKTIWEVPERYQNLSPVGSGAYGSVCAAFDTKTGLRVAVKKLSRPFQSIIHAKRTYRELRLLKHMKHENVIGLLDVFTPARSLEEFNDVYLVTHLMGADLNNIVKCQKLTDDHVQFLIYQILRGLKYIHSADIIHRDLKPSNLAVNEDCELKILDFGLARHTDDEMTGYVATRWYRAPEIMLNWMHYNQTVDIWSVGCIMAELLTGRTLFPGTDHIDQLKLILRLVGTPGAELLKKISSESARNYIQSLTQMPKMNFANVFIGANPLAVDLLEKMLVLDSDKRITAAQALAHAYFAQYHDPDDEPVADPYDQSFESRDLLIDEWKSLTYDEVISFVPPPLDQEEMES
Chain of SGK1 (human), O00141 [S422D] (O00141 whole entry S422D, looked up): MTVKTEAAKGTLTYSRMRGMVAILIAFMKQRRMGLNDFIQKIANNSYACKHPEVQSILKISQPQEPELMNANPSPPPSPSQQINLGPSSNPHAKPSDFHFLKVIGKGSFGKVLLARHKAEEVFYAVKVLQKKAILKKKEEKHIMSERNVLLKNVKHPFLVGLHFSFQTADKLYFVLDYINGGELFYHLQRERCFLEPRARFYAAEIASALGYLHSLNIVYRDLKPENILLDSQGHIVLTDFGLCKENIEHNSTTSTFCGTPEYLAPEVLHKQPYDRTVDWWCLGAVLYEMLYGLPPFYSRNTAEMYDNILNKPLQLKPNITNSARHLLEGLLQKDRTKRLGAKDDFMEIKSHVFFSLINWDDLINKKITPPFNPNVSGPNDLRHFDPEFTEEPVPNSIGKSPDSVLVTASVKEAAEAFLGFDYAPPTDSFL
Chain of PLK1 (human) (P53350 whole entry, looked up): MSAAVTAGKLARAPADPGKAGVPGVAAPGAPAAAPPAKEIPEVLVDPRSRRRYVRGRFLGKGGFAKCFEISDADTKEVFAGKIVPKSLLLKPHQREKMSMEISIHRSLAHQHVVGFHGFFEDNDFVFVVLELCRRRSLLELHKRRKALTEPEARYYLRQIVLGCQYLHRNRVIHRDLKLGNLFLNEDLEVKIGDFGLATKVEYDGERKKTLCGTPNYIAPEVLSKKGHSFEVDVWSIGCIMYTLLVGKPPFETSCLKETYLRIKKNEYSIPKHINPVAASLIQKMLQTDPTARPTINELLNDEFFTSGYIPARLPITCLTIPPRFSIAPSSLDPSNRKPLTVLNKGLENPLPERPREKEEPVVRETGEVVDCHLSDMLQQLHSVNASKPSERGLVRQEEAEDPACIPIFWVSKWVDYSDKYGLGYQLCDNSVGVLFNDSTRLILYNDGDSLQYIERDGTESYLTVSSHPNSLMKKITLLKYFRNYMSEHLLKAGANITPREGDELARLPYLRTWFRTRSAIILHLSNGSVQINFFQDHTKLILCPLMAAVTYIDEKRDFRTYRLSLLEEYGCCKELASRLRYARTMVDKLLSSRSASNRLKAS
Chain of AKT2 (human), P31751 [S474D] (P31751 whole entry S474D, looked up): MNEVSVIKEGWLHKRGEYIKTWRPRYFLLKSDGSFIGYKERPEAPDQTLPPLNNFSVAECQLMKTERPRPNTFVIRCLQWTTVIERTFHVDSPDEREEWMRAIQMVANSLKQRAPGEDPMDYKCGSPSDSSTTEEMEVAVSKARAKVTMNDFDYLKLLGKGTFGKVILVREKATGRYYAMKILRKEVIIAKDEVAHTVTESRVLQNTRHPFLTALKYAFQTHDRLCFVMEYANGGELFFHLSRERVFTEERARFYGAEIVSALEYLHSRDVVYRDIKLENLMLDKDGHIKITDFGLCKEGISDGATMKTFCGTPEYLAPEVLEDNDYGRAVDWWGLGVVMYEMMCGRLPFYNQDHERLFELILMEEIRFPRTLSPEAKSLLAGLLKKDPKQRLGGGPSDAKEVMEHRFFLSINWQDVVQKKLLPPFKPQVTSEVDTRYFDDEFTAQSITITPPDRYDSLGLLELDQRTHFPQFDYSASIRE

CCc1cncnc1N1CCN(Cc2nc3cc(C(F)(F)F)ccc3[nH]2)CC1
residual activity (NEK6 (human); compound 0.1 µM): 88%
residual activity (NEK6 (human); compound 1.0 µM): 75%
residual activity (NEK6 (human); compound 10.0 µM): 80%
residual activity (IGF1R (human); compound 0.1 µM): 72%
residual activity (IGF1R (human); compound 1.0 µM): 95%
residual activity (IGF1R (human); compound 10.0 µM): 82%
residual activity (PKN2 (human); compound 0.1 µM): 95%
residual activity (PKN2 (human); compound 1.0 µM): 86%
residual activity (PKN2 (human); compound 10.0 µM): 84%
residual activity (PAK4 (human); compound 0.1 µM): 93%
residual activity (PAK4 (human); compound 1.0 µM): 88%
residual activity (PAK4 (human); compound 10.0 µM): 88%
residual activity (RPS6KA5 KD1 KD2 (human); compound 0.1 µM): 80%
residual activity (RPS6KA5 KD1 KD2 (human); compound 1.0 µM): 34%
residual activity (RPS6KA5 KD1 KD2 (human); compound 10.0 µM): 6%
residual activity (PAK7 (human); compound 1.0 µM): 88%
residual activity (PAK7 (human); compound 10.0 µM): 87%
residual activity (MST4 (human); compound 0.1 µM): 87%
residual activity (MST4 (human); compound 1.0 µM): 77%
residual activity (MST4 (human); compound 10.0 µM): 46%
residual activity (DYRK1A (human); compound 0.1 µM): 99%
residual activity (DYRK1A (human); compound 1.0 µM): 94%
residual activity (DYRK1A (human); compound 10.0 µM): 85%
residual activity (NEK2 (human); compound 0.1 µM): 95%
residual activity (NEK2 (human); compound 1.0 µM): 94%
residual activity (NEK2 (human); compound 10.0 µM): 91%
residual activity (PLK1 (human); compound 0.1 µM): 98%
residual activity (PLK1 (human); compound 1.0 µM): 87%
residual activity (PLK1 (human); compound 10.0 µM): 88%
residual activity (SRPK1 (human); compound 0.1 µM): 108%
residual activity (SRPK1 (human); compound 1.0 µM): 106%
residual activity (SRPK1 (human); compound 10.0 µM): 101%
residual activity (MAPK12 (human); compound 0.1 µM): 107%
residual activity (MAPK12 (human); compound 1.0 µM): 102%
residual activity (MAPK12 (human); compound 10.0 µM): 103%
residual activity ([1]; compound 0.1 µM): 74%
residual activity ([1]; compound 1.0 µM): 73%
residual activity ([1]; compound 10.0 µM): 60%
residual activity ([2]; compound 0.1 µM): 106%
residual activity ([2]; compound 1.0 µM): 74%
residual activity ([2]; compound 10.0 µM): 65%
residual activity (MAPK15 (human); compound 0.1 µM): 85%
residual activity (MAPK15 (human); compound 1.0 µM): 83%
residual activity (MAPK15 (human); compound 10.0 µM): 71%
residual activity (CAMKK2 (human); compound 0.1 µM): 99%
residual activity (CAMKK2 (human); compound 1.0 µM): 98%
residual activity (CAMKK2 (human); compound 10.0 µM): 80%
residual activity (MAPK14 (human); compound 0.1 µM): 86%
residual activity (MAPK14 (human); compound 1.0 µM): 79%
residual activity (MAPK14 (human); compound 10.0 µM): 86%
residual activity (IKBKE (human); compound 0.1 µM): 103%
residual activity (IKBKE (human); compound 1.0 µM): 99%
residual activity (IKBKE (human); compound 10.0 µM): 96%
residual activity (PAK6 (human); compound 0.1 µM): 99%
residual activity (PAK6 (human); compound 1.0 µM): 83%
residual activity (PAK6 (human); compound 10.0 µM): 86%
residual activity (CHEK1 (human); compound 0.1 µM): 90%
residual activity (CHEK1 (human); compound 1.0 µM): 83%
residual activity (CHEK1 (human); compound 10.0 µM): 83%
residual activity (RPS6KA3 KD1 KD2 (human); compound 0.1 µM): 86%
residual activity (RPS6KA3 KD1 KD2 (human); compound 1.0 µM): 67%
residual activity (RPS6KA3 KD1 KD2 (human); compound 10.0 µM): 25%
residual activity (CSNK1D (human); compound 0.1 µM): 96%
residual activity (CSNK1D (human); compound 1.0 µM): 93%
residual activity (CSNK1D (human); compound 10.0 µM): 71%
residual activity (MAPKAPK2 (human); compound 1.0 µM): 105%
residual activity (MAPKAPK2 (human); compound 10.0 µM): 78%
residual activity (MAPK3 (human); compound 0.1 µM): 93%
residual activity (MAPK3 (human); compound 1.0 µM): 85%
residual activity (PIM3 (human); compound 0.1 µM): 93%
residual activity (PIM3 (human); compound 1.0 µM): 88%
residual activity (PIM3 (human); compound 10.0 µM): 83%
residual activity (PIM2 (human); compound 0.1 µM): 90%
residual activity (PIM2 (human); compound 1.0 µM): 90%
residual activity (PIM2 (human); compound 10.0 µM): 100%

O=C1NC(=S)N[C@@H]1Cc1c[nH]c2ccccc12
residual activity (NEK6 (human); compound 1.0 µM): 83%
residual activity (NEK6 (human); compound 10.0 µM): 87%
residual activity (IGF1R (human); compound 1.0 µM): 113%
residual activity (IGF1R (human); compound 10.0 µM): 100%
residual activity (PKN2 (human); compound 1.0 µM): 87%
residual activity (PKN2 (human); compound 10.0 µM): 82%
residual activity (PAK4 (human); compound 1.0 µM): 103%
residual activity (PAK4 (human); compound 10.0 µM): 106%
residual activity (RPS6KA5 KD1 KD2 (human); compound 1.0 µM): 80%
residual activity (RPS6KA5 KD1 KD2 (human); compound 10.0 µM): 87%
residual activity (PAK7 (human); compound 1.0 µM): 97%
residual activity (PAK7 (human); compound 10.0 µM): 108%
residual activity (MST4 (human); compound 1.0 µM): 126%
residual activity (MST4 (human); compound 10.0 µM): 108%
residual activity (DYRK1A (human); compound 1.0 µM): 85%
residual activity (DYRK1A (human); compound 10.0 µM): 92%
residual activity (NEK2 (human); compound 1.0 µM): 87%
residual activity (NEK2 (human); compound 10.0 µM): 92%
residual activity (PLK1 (human); compound 1.0 µM): 97%
residual activity (PLK1 (human); compound 10.0 µM): 93%
residual activity (SRPK1 (human); compound 1.0 µM): 100%
residual activity (SRPK1 (human); compound 10.0 µM): 98%
residual activity (MAPK12 (human); compound 1.0 µM): 103%
residual activity (MAPK12 (human); compound 10.0 µM): 96%
residual activity ([1]; compound 1.0 µM): 83%
residual activity ([1]; compound 10.0 µM): 97%
residual activity ([2]; compound 1.0 µM): 87%
residual activity ([2]; compound 10.0 µM): 96%
residual activity (MAPK15 (human); compound 1.0 µM): 104%
residual activity (MAPK15 (human); compound 10.0 µM): 94%
residual activity (CAMKK2 (human); compound 1.0 µM): 79%
residual activity (CAMKK2 (human); compound 10.0 µM): 95%
residual activity (MAPK14 (human); compound 1.0 µM): 76%
residual activity (MAPK14 (human); compound 10.0 µM): 82%
residual activity (IKBKE (human); compound 1.0 µM): 84%
residual activity (IKBKE (human); compound 10.0 µM): 93%
residual activity (PAK6 (human); compound 1.0 µM): 87%
residual activity (PAK6 (human); compound 10.0 µM): 98%
residual activity (CHEK1 (human); compound 10.0 µM): 81%
residual activity (RPS6KA3 KD1 KD2 (human); compound 1.0 µM): 78%
residual activity (RPS6KA3 KD1 KD2 (human); compound 10.0 µM): 100%
residual activity (CSNK1D (human); compound 1.0 µM): 105%
residual activity (CSNK1D (human); compound 10.0 µM): 115%
residual activity (MAPKAPK2 (human); compound 1.0 µM): 72%
residual activity (MAPKAPK2 (human); compound 10.0 µM): 96%
residual activity (MAPK3 (human); compound 1.0 µM): 107%
residual activity (MAPK3 (human); compound 10.0 µM): 82%
residual activity (PIM3 (human); compound 1.0 µM): 90%
residual activity (PIM3 (human); compound 10.0 µM): 95%
residual activity (PIM2 (human); compound 1.0 µM): 97%
residual activity (PIM2 (human); compound 10.0 µM): 86%

O=C1Nc2nc(-c3c(O)cccc3OCC3CC3)cc(C3CCCNC3)c2CO1 (stereo not drawn)
residual activity (NEK6 (human); compound 1.0 µM): 98%
residual activity (NEK6 (human); compound 10.0 µM): 93%
residual activity (IGF1R (human); compound 1.0 µM): 80%
residual activity (PKN2 (human); compound 1.0 µM): 69%
residual activity (PKN2 (human); compound 10.0 µM): 36%
residual activity (PAK4 (human); compound 1.0 µM): 89%
residual activity (PAK4 (human); compound 10.0 µM): 54%
residual activity (RPS6KA5 KD1 KD2 (human); compound 1.0 µM): 71%
residual activity (RPS6KA5 KD1 KD2 (human); compound 10.0 µM): 31%
residual activity (PAK7 (human); compound 1.0 µM): 82%
residual activity (PAK7 (human); compound 10.0 µM): 72%
residual activity (MST4 (human); compound 1.0 µM): 105%
residual activity (MST4 (human); compound 10.0 µM): 85%
residual activity (DYRK1A (human); compound 1.0 µM): 99%
residual activity (DYRK1A (human); compound 10.0 µM): 82%
residual activity (NEK2 (human); compound 1.0 µM): 83%
residual activity (NEK2 (human); compound 10.0 µM): 81%
residual activity (PLK1 (human); compound 1.0 µM): 83%
residual activity (PLK1 (human); compound 10.0 µM): 87%
residual activity (SRPK1 (human); compound 1.0 µM): 98%
residual activity (SRPK1 (human); compound 10.0 µM): 65%
residual activity (MAPK12 (human); compound 1.0 µM): 85%
residual activity (MAPK12 (human); compound 10.0 µM): 66%
residual activity ([1]; compound 1.0 µM): 88%
residual activity ([1]; compound 10.0 µM): 61%
residual activity ([2]; compound 1.0 µM): 55%
residual activity ([2]; compound 10.0 µM): 13%
residual activity (MAPK15 (human); compound 1.0 µM): 53%
residual activity (MAPK15 (human); compound 10.0 µM): 10%
residual activity (CAMKK2 (human); compound 1.0 µM): 94%
residual activity (CAMKK2 (human); compound 10.0 µM): 78%
residual activity (MAPK14 (human); compound 1.0 µM): 91%
residual activity (MAPK14 (human); compound 10.0 µM): 78%
residual activity (IKBKE (human); compound 1.0 µM): 83%
residual activity (IKBKE (human); compound 10.0 µM): 74%
residual activity (PAK6 (human); compound 1.0 µM): 72%
residual activity (PAK6 (human); compound 10.0 µM): 78%
residual activity (CHEK1 (human); compound 1.0 µM): 102%
residual activity (CHEK1 (human); compound 10.0 µM): 88%
residual activity (RPS6KA3 KD1 KD2 (human); compound 1.0 µM): 80%
residual activity (RPS6KA3 KD1 KD2 (human); compound 10.0 µM): 53%
residual activity (CSNK1D (human); compound 1.0 µM): 81%
residual activity (CSNK1D (human); compound 10.0 µM): 43%
residual activity (MAPK3 (human); compound 10.0 µM): 86%
residual activity (PIM3 (human); compound 1.0 µM): 44%
residual activity (PIM3 (human); compound 10.0 µM): 7%
residual activity (PIM2 (human); compound 10.0 µM): 40%
